{"source": "patent US8603964B2", "about": "“Methods for modulating angiogenesis via dystrophin Dp71” (Institut National de la Sante et de la Recherche Medicale …, priority 2008, dated 2013)", "key": {"Dp71": {"system": "Dp71", "details": "cited from earlier work"}, "[1]": {"system": "aortic rings explants of Dp71-null mice", "test": "Mouse aortic ring explant neovessel formation, Dp71-null mice", "format": "cell-based", "set-up": "dose or concentration left out as unconfirmed", "details": "same treatment with beta-nf, day 4", "source_text": "The Dp71-null mice strain was obtained by replacing, via homologous recombination, most of the first and unique exon of Dp71 and of a small part of the Dp71 first intron with a sequence encoding a β-gal-neomycine-(beta-gal) resistance chimeric protein (β-geo). This enabled to monitor with great sensitivity the activity of the promoter using X-gal staining (Sarig et al., 1999).\nThoracic aortas were removed from 2 months-old mice (C57BL/6 and Dp71-null mice) killed by CO2 asphyxiation and immediately transferred to a culture dish containing ice-cold endothelial cell basal medium (EGM-2; Cambrex Bioscience). The periaortic fibroadipose tissue was carefully removed with fine microdissecting forceps and scissors, paying special attention not to damage the aortic wall. One millimeters-long aortic rinaortic rings explants gs (15 per aorta from 12 mice) were sectioned and rinsed extensively in eight consecutive washes of EGM-2. The rings were then individually embedded in 48-well plates previously coated with 50 μl synthetic basement membrane (Matrigel; BD Bioscience) per well. After 1 hour, 500 μl EGM-2 was added to each well, and the cultures were incubated at 37° C. for 5 days. The culture medium was change each day. […] The angiogenic response was determined by measuring the area of neovessel formation on computer (ImageJ or Photoshop software)."}, "[2]": {"system": "aortic rings explants of wt mice (C57BL/6)", "test": "Mouse aortic ring explant neovessel formation, wild-type mice", "format": "cell-based", "source_text": "Thoracic aortas were removed from 2 months-old mice (C57BL/6 and Dp71-null mice) killed by CO2 asphyxiation and immediately transferred to a culture dish containing ice-cold endothelial cell basal medium (EGM-2; Cambrex Bioscience). The periaortic fibroadipose tissue was carefully removed with fine microdissecting forceps and scissors, paying special attention not to damage the aortic wall. One millimeters-long aortic rinaortic rings explants gs (15 per aorta from 12 mice) were sectioned and rinsed extensively in eight consecutive washes of EGM-2. The rings were then individually embedded in 48-well plates previously coated with 50 μl synthetic basement membrane (Matrigel; BD Bioscience) per well. After 1 hour, 500 μl EGM-2 was added to each well, and the cultures were incubated at 37° C. for 5 days. The culture medium was change each day. […] For all cell treatment, the final DMSO concentration was adjusted to 0.1%. The aortic rings were photographed on day 4 at ×2 magnification with a macroscope (Leica). The angiogenic response was determined by measuring the area of neovessel formation on computer (ImageJ or Photoshop software)."}}}
{"smiles": "O=c1cc(-c2ccccc2)oc2ccc3ccccc3c12", "note": "[beta-nf, beta-naphtoflavone]", "values": [{"measurement": "Dp71 expression", "setting": "Dp71", "value": "inhibits Dp71 expression"}, {"measurement": "effect on neovessel formation", "setting": "[1]", "value": "without effect"}, {"measurement": "inhibition of neovessel formation", "setting": "[2]; explants of wt mice, beta-nf in 0.1% DMSO, area of neovessel formation on day 4, P<0.001", "value": 50, "unit": "%"}, {"measurement": "neoangiogenesis in aortic rings explants (in words)", "setting": "[2]; wild mice strain expressing Dp71", "value": "inhibition of neoangiogenesis"}]}
